# From patent US20220009920A1 (GB005, Inc., priority 2020, published 2022)
# Key:
# Assay in all cases: Large panel kinase profiling
# Format in all cases: biochemical
# Details in all cases: 1 μM test article, 1 mM ATP
# [1] = molecular target: PAK2 (Homo sapiens, UniProt Q13177)
# Procedure, shortened: (§1)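 One compound concentration (1 μM) was screened against each kinase at 1 mM ATP using PhosphoSens CSox-Sensor detection, at 30° C., with fluorescence read every 1 min (Ex 360 nm/Em 485 nm).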
# [2] = molecular target: T1, PHKG2 (Homo sapiens, UniProt P15735)
# T1 sequence (P15735 1-406): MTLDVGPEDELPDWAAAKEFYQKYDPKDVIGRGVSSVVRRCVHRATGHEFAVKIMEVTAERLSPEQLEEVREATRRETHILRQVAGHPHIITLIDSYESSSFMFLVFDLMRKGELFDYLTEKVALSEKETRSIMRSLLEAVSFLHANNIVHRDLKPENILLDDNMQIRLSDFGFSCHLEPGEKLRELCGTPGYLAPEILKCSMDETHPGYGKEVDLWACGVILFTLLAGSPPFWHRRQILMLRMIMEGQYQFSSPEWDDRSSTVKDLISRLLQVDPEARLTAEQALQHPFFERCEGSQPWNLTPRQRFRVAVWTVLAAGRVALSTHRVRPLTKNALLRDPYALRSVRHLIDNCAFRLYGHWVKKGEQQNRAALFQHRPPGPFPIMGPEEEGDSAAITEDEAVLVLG
# Procedure, shortened: as §1
# [3] = molecular target: T2, MAPKAPK2/MK2 (Homo sapiens, UniProt P49137)
# T2 construct: AssayQuant Technologies, Inc. (service provider)
# T2 sequence (P49137 whole entry): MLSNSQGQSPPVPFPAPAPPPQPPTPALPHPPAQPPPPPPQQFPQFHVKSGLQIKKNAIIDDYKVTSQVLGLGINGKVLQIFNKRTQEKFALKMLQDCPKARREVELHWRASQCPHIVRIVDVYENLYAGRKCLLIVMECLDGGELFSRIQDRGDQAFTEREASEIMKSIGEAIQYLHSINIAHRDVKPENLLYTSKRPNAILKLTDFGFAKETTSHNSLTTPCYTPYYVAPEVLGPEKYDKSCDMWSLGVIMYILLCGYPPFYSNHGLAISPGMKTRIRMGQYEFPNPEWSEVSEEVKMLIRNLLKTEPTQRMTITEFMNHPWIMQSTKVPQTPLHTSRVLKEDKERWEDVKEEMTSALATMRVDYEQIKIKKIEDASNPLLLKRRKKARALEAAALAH
# Procedure, shortened: as §1
# [4] = molecular target: T3, MAP4K5/KSH1 (Homo sapiens, UniProt Q9Y4K4)
# T3 construct: AssayQuant Technologies, Inc. (service provider)
# T3 sequence (Q9Y4K4 whole entry): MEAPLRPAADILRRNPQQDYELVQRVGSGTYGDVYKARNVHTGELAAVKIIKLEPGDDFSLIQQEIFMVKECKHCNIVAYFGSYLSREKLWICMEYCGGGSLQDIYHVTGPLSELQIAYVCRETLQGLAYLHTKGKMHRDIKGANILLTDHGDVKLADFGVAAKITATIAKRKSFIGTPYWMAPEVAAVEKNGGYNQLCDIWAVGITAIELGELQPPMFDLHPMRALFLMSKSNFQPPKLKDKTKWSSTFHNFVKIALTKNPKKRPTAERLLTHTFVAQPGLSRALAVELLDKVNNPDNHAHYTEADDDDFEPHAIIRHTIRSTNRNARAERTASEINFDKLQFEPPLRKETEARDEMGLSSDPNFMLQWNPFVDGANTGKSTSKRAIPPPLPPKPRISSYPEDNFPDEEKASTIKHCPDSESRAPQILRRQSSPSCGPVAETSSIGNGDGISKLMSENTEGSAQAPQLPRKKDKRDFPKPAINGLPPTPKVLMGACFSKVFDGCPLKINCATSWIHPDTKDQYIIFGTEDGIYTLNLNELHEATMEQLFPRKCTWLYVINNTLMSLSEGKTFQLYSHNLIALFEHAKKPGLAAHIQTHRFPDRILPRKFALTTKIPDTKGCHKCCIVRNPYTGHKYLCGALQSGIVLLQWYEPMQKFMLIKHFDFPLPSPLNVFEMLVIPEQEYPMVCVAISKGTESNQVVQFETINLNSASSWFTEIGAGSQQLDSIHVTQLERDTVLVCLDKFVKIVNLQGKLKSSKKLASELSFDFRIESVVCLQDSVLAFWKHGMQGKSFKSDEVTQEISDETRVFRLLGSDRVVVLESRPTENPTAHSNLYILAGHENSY
# Procedure, shortened: as §1
# [5] = molecular target: T4, AXL (Homo sapiens, UniProt P30530)
# T4 sequence (P30530 26-894): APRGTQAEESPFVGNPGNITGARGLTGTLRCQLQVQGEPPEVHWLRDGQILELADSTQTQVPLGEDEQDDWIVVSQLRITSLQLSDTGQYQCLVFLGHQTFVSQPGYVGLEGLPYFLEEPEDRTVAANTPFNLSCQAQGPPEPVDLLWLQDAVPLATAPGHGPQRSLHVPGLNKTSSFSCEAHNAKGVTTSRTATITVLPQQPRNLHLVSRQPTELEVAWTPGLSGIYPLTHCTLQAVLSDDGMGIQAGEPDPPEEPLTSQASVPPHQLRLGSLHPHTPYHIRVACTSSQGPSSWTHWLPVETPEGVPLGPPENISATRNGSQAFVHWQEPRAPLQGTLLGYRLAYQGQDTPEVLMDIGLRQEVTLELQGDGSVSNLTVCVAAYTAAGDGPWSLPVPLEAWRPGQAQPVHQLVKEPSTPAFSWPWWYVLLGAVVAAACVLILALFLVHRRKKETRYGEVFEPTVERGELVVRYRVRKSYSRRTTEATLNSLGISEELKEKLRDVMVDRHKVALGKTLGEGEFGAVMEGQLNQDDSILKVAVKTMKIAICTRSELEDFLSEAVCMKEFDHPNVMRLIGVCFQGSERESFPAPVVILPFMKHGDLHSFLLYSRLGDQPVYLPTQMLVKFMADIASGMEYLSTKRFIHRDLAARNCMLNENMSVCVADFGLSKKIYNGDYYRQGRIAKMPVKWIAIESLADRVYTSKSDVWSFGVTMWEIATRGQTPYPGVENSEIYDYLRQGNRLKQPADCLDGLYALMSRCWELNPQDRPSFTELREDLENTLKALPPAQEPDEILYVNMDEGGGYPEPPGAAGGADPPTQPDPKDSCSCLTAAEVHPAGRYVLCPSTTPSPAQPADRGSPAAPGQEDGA
# Procedure, shortened: as §1
# [6] = molecular target: T5, CDK5/P25 (Homo sapiens, UniProt Q00535)
# T5 construct: AssayQuant Technologies, Inc. (ran the panel)
# T5 sequence (Q00535 whole entry, species assumed): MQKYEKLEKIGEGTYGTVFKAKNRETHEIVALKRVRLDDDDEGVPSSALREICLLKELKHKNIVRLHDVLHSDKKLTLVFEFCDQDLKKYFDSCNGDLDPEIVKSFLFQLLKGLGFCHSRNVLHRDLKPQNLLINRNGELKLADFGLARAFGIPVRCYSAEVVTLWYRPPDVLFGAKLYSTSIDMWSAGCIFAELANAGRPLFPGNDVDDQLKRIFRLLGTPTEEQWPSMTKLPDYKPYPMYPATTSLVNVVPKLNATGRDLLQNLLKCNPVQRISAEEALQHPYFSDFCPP
# T5 sequence (Q15078 99-307 partner limits assumed, species assumed): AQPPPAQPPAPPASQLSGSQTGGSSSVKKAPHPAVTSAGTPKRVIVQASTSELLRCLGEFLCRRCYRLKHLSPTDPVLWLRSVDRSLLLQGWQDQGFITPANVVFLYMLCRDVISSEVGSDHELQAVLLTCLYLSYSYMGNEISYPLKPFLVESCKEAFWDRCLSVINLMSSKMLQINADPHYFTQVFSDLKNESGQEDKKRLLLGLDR
# Procedure, shortened: as §1
# [7] = molecular target: PDGFRB (Homo sapiens, UniProt P09619)
# Sequence of PDGFRB (P09619 33-1106, species assumed): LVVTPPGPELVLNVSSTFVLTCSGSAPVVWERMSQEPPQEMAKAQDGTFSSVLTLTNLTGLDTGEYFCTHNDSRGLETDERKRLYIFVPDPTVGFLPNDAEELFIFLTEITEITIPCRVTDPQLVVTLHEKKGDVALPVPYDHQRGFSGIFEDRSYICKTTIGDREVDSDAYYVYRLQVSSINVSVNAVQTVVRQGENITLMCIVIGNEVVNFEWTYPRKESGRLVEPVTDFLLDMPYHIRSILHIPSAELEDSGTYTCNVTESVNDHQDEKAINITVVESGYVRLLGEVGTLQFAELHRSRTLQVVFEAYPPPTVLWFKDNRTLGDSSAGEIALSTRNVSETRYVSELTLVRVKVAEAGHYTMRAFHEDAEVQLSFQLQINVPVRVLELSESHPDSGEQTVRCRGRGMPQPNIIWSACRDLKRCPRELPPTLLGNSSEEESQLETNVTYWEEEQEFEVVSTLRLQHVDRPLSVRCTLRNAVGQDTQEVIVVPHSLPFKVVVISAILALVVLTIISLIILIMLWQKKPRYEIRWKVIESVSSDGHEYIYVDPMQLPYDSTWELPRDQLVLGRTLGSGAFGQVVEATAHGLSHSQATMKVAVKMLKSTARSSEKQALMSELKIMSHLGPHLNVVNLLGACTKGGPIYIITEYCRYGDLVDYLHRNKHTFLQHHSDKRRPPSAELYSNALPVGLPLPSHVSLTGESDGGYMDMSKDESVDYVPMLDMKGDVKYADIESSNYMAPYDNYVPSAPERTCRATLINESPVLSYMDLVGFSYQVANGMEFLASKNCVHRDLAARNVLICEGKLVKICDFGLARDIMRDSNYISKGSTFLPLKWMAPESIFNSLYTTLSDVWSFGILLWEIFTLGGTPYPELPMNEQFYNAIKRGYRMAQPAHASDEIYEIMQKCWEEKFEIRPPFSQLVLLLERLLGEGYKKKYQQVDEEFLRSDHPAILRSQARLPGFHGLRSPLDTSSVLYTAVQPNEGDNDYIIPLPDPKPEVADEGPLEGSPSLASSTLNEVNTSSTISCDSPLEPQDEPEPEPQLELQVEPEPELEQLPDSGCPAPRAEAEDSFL
# Procedure, shortened: as §1
# [8] = molecular target: T6, MINK1 (Homo sapiens, UniProt Q8N4C8)
# T6 construct: AssayQuant Technologies, Inc. (assay service)
# T6 sequence (Q8N4C8 whole entry, species assumed): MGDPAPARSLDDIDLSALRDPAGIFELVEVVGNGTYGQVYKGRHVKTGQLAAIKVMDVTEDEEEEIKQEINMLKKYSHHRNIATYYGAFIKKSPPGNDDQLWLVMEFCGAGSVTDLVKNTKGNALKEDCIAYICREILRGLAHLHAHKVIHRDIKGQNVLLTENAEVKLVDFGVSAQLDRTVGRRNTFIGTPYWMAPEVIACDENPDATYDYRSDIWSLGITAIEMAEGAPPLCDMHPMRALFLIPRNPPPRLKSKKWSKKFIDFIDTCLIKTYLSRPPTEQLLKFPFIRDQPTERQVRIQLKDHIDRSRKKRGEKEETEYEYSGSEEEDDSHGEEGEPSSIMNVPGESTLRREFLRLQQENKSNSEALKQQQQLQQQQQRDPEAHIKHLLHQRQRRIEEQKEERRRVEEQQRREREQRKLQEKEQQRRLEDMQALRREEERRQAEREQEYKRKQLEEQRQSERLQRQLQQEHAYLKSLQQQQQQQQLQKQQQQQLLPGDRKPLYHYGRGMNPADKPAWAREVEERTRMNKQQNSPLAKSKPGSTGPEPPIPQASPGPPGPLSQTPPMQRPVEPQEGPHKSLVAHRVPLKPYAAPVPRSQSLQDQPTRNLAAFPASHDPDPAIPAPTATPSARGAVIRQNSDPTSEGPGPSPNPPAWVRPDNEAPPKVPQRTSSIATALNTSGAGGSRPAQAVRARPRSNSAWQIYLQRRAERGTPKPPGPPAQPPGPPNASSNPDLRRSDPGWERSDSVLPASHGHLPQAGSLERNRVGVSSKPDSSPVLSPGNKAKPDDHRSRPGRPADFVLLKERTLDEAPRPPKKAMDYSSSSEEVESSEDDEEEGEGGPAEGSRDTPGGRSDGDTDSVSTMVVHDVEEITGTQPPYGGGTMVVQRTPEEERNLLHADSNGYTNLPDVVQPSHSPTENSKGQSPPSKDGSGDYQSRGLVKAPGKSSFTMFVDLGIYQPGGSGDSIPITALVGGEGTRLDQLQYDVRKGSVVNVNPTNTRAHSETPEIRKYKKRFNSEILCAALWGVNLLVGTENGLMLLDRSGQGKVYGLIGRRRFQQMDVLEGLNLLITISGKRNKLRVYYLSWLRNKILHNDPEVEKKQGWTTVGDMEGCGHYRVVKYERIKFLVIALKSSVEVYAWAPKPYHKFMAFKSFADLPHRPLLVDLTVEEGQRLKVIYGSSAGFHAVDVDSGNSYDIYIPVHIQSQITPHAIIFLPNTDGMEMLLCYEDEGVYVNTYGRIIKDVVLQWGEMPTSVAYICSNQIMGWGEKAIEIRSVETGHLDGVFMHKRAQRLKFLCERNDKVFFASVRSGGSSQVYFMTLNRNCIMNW
# Procedure, shortened: as §1
# [9] = molecular target: T7, PRKCE/PKCE (Homo sapiens, UniProt Q02156)
# T7 sequence (Q02156 1-737): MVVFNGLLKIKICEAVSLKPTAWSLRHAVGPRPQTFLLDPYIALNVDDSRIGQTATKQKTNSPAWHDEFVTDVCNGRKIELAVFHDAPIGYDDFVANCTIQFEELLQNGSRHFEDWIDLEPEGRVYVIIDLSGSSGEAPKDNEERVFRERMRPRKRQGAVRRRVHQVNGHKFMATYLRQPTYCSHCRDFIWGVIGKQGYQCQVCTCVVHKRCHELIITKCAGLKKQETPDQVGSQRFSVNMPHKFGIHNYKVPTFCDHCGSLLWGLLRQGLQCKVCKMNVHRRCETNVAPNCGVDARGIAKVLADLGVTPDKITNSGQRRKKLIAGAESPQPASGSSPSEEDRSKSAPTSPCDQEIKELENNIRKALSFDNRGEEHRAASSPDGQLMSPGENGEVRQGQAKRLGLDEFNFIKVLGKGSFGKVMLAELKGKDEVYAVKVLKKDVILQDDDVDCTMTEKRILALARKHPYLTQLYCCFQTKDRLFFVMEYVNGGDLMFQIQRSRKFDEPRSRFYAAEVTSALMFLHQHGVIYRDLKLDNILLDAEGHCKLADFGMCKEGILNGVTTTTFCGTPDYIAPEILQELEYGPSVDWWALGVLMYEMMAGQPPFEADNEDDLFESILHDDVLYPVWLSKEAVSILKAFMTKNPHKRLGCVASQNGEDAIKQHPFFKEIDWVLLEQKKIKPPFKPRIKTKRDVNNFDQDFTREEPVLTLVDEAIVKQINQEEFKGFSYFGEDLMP
# Procedure, shortened: as §1
# Sequence of PAK2 (Q13177 whole entry, species assumed): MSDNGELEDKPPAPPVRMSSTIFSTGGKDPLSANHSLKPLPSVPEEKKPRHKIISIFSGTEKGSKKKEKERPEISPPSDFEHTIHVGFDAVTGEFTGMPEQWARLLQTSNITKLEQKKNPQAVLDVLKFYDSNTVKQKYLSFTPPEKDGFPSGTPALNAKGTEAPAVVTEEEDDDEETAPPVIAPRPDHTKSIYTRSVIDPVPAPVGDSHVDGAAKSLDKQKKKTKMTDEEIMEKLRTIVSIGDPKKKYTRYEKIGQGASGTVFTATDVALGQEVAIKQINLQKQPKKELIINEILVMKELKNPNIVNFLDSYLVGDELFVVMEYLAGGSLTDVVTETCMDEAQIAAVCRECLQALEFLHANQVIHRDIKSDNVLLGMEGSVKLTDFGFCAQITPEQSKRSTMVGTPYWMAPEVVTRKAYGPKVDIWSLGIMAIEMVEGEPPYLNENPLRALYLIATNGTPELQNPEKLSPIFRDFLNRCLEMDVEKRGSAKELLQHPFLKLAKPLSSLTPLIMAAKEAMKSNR
Structure (SMILES),inhibition at 1 µM [1],inhibition at 1 µM [2],inhibition at 1 µM [3],inhibition at 1 µM [4],inhibition at 1 µM [5],inhibition at 1 µM [6],inhibition at 1 µM [7],inhibition at 1 µM [8],inhibition at 1 µM [9]
"C=CC(=O)N1CCCC(c2c(F)cc(C(N)=O)c3[nH]c4c(c23)CCCCC4)C1 (single isomer, unassigned) [Compound 5-6]",13.9%,10.1%,-5.9%,-1.1%,-20.3%,-11.1%,-52.9%,-2.8%,-3.2%
"C=CC(=O)N1CCC[C@@H](c2c(F)cc(C(N)=O)c3[nH]c4c(c23)CC2(CC4)CC2)C1 [Compound 6-2, (S)-5-(1-acryloylpiperidin-3-yl)-6-fluoro-1,2,4,9-tetrahydrospiro[carbazole-3,1′-cyclopropane]-8-carboxamide]",1.3%,64.5%,24.1%,4.1%,1.5%,-13%,23.2%,-22.7%,0%
"C=CC(=O)N1CCC[C@@H](c2c(F)cc(C(N)=O)c3[nH]c4c(c23)CCC4)C1 [Compound 10-2, (S)-8-(1-acryloylpiperidin-3-yl)-7-fluoro-1,2,3,4-tetrahydrocyclo-penta[b]indole-5-carboxamide]",7%,75%,-7.1%,-4.9%,-1.7%,1.6%,4.7%,-18.4%,-3.5%
